# In patent US12062444B2, “Methods and compositions related to triple-negative breast cancer” (THE UNIVERSITY OF CHICAGO, priority 2017, dated 2024):
# “Also recorded” adds a separate entry of the source.
# Key:
# [1] = tested on: tumor cell survival; conditions: in vitro and in vivo; cited from earlier work
# [2] = mifepristone 300 mg/day before weekly nab-paclitaxel, BC patients; cited from earlier work
# [3] = tested on: GR-regulated gene expression in MDA-MB-231 cells; experiment: Gene expression microarray and analysis; assay type: cell-based, human
# Experimental: MDA-MB-231 cells were grown to 80% confluence in 15-cm dishes in DMEM with 10% FBS. […] Following compound exposure, cells were washed in PBS, and lysed in RNA lysis buffer (Qiagen) overnight at -80° C. RNA extraction, with accompanying DNase treatment, was performed using the RNeasy kit (Qiagen) following the manufacturer's protocol. […] The University of Chicago Genomics Core facility carried out the reverse transcription on the samples, followed by microarray using the Affymetrix Human U133 Plus 2.0 platform. […] A principal components analysis (PCA) was performed using the prcomp function in R (Q-mode PCA using singular value decomposition). […] Dex-regulated genes were overlapped with a list of n=5,170 differentially-expressed tumor-derived genes (in the same direction) from GR-high versus GR-low BCs (52). Ingenuity Pathway Analysis (Qiagen) of the n=462 patient-relevant and antagonist-inhibited genes was performed to obtain Activation Z-scores of the most significant Diseases and Biofunctions (cell functions).
# [4] = target: T1, GR LBD (Homo sapiens, UniProt P04150); experiment: Ligand titration assay via fluorescence polarimetry (displacement of F-Dex); assay type: binding
# T1 construct: The wild-type GR-LBD (amino acid residues 522-777) was cloned into a pFASTBAC plasmid; 6X-His (TEV-cleavable) (cleaved yes); made in house; host or cells: SF9 insect cells (baculovirus, pFASTBAC)
# T1 sequence (P04150 522-777): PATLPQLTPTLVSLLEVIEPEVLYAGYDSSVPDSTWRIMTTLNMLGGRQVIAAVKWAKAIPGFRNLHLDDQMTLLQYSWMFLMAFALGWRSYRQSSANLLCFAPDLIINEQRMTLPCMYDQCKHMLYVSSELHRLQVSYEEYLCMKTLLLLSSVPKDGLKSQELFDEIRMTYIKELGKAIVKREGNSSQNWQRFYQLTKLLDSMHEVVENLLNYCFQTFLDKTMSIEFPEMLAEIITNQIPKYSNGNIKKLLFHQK
# Experimental: SF9 insect cells were transfected with recombinant bacmid and virus (collected after 6 days) was amplified prior to protein expression. […] GR-LBD was purified first using Ni-affinity chromatography followed by overnight dialysis with TEV protease to remove the His tag. Extensive dialysis into 20 mM TRIS pH 8.0, 500 mM NaCl, 5% glycerol, 0.1% CHAPS, 0.25 mM TCEP was performed to obtain non-ligand-bound GR LBD. […] The purified proteins were concentrated to 5 mg/ml, flash frozen in 50 ul aliquots in N2(l), and stored at −80C.
# GR LBD was diluted in assay buffer (20 mM TRIS pH 7.5, 50 mM NaCl, 0.25 mM TCEP) to a concentration of 50 nM. […] Triplicate FP measurements were scaled to maximal FP and averaged for each ligand concentration.
# [5] = tested on: GR chromatin association in MDA-MB-231 cells; experiment: GR ChIP-sequencing and analysis; assay type: cell-based, human; conditions: co-treatment with Dex
# Experimental: MDA-MB-231 cells were grown to 80% confluence in 15-cm dishes in DMEM with 10% FBS, followed by 48h in DMEM supplemented with 2.5% charcoal-stripped FBS. […] Cells were cross-linked with 1% formaldehyde, quenched with glycine (final concentration of […]), and harvested. After cell lysis with ChIP lysis buffer (Magna ChIP A Chromatin Immunoprecipitation Kit, EMD Millipore), cells were sonicated to achieve the majority of DNA fragments between 200-400 bp. Input samples were preserved at -80° C. […] Following manufacturer's protocol, chromatin was eluted from GR ChIP and input samples. Library build and sequencing was performed at the University of Oregon Genomics Core facility using the NextSeq 500 sequencer. Quality control on sequences and adapter sequencing trimming was performed using Kapa Biosystems Illumina Library Quantification Kit. ChIP-seq analysis was carried out using the Galaxy platform (usegalaxy.org (111)). […] GR peaks for each treatment were normalized to its own input control sample. […] Selected GR peak locations in hg19 and GR peak maps were also individually analyzed using Integrative Genomics Viewer, IGV (Broad Institute (116)).
# [6] = tested on: apoptotic cells; conditions: RU486 in conjunction with dexamethasone, compared to paclitaxel alone; cited from earlier work
smiles,measurement,setting,value
"CC#C[C@]1(O)CC[C@H]2[C@@H]3CCC4=CC(=O)CCC4=C3[C@@H](c3ccc(N(C)C)cc3)C[C@@]21C [Mif, mifepristone]",Paclitaxel cytotoxicity under GC activation,[1],increase paclitaxel cytotoxicity both in vitro and in vivo
same,Safety and tolerability of the combination with nab-paclitaxel,[2],safe and tolerable; also recorded: potential for increased cytopenias
same,Genes for which both GR modulators antagonized GR induction or repression by at least 25%,[3]; 100 nM with 100 nM Dex,"3,066"
same,Antagonized GR-regulated genes shared with the other antagonist,"[3]; C297 versus Mif, 100 nM",68%
same,Pathway activation Z-score (Ingenuity Pathway Analysis) relative to Dex,"[3]; n=462 genes, cell survival, invasion, EMT pathways, FIG. 13",relative dampening of Z-score magnitude
same,Displacement of fluorescently-labeled Dex (F-Dex) from the GR LBD,[4],low nM affinities
same,Fit of FP dose response curve (half-maximal FP signal),[4],able to fit data
same,Relative GR promoter enrichment (+/−3kb),[5],decrease in relative GR promoter enrichment
same,Number of apoptotic cells induced by paclitaxel,[6],did not increase the number of apoptotic cells
